Reference: ChEMBL document CHEMBL1143289, “Potent and selective adenosine A2A receptor antagonists: 1,2,4-Triazolo[1,5-c]pyrimidines” (Bioorg Med Chem Lett, 2009)

Assays:
Rattus norvegicus [1] = test: Inhibition of haloperidol-induced catalepsy in rat at 3 mg/kg, po after 1 hr; format: functional
Homo sapiens = species on record: Homo sapiens; test: Selectivity for human adenosine A1 receptor over human adenosine A2A receptor
Rattus norvegicus [2] = test: Inhibition of haloperidol-induced catalepsy in rat at 1 mg/kg, po after 1 hr; format: functional
Rattus norvegicus [3] = test: Inhibition of haloperidol-induced catalepsy in rat at 3 mg/kg, po after 4 hrs; format: functional
[4] = AUC in rat plasma at 3 mg/kg, po; format: ADME, organism-based; parameters: dose 3 mg/kg, route oral
Adenosine receptor A2a = Adenosine receptor A2a (Homo sapiens, UniProt P29274); test: Displacement of [3H]SCH58261 from human adenosine A2A receptor expressed in HEK293 cells; format: cell-based
Rattus norvegicus [5] = test: Inhibition of haloperidol-induced catalepsy in rat at 1 mg/kg, po after 4 hrs; format: functional
Rattus norvegicus [6] = test: Inhibition of haloperidol-induced catalepsy in rat at 0.3 mg/kg, po after 1 hr; parameters: scale not given: the % may be the effect or the level left
Rattus norvegicus [7] = test: Inhibition of haloperidol-induced catalepsy in rat at 0.1 mg/kg, po after 1 hr; format: functional; settings: read-out: INH
Rattus norvegicus [8] = test: Inhibition of haloperidol-induced catalepsy in rat at 0.3 mg/kg, po after 1 hr; format: functional; settings: read-out: INH
Rattus norvegicus [9] = test: Inhibition of haloperidol-induced catalepsy in rat at 0.1 mg/kg, po after 4 hrs; format: functional
Rattus norvegicus [10] = test: Inhibition of haloperidol-induced catalepsy in rat at 0.3 mg/kg, po after 4 hrs; format: functional; settings: read-out: INH

Adenosine receptor A2a, sequence (P29274 whole entry): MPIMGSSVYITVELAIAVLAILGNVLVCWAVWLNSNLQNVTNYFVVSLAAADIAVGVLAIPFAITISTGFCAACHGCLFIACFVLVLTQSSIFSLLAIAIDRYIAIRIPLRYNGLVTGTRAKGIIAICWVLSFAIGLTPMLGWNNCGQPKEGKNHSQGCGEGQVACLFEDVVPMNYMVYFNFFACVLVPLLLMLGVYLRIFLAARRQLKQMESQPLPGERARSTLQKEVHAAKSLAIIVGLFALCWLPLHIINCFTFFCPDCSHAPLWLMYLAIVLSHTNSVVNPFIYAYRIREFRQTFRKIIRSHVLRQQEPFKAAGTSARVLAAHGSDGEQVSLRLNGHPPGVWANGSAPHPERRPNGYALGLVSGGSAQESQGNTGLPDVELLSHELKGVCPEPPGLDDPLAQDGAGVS

SMILES | inhibition in vivo at 3 mg/kg (Rattus norvegicus [1]) [%] | Ratio (Homo sapiens) | inhibition in vivo at 1 mg/kg (Rattus norvegicus [2]) [%] | inhibition in vivo at 3 mg/kg (Rattus norvegicus [3]) [%] | AUC [4] [ng·h/mL] | Ki (Adenosine receptor A2a) [nM] | inhibition in vivo at 1 mg/kg (Rattus norvegicus [5]) [%] | other results
Nc1nc(OCCN2CCN(c3ccc(F)cc3F)CC2)cc2nc(-c3ccco3)nn12 | 25 | 275 | 45 | 0 | 187 | 6 | – | –
COCCOc1ccc(N2CCN(CCN(C)c3cc4nc(-c5cccc(C#N)c5)nn4c(N)n3)CC2)cc1 | 29 | 1070 | – | 31 | 546 | 0.7 | – | –
CCN(CCc1ccc(F)cc1)c1cc2nc(-c3ccco3)nn2c(N)n1 | – | 525 | – | – | – | 3 | – | –
COCCOc1ccc(N2CCN(CCN(C)c3cc4nc(-c5ccccc5)nn4c(N)n3)CC2)cc1 | – | 56 | – | – | – | 25 | – | –
COCCOc1ccc(N2CCN(CCN(C)c3cc4nc(-c5ccco5)nn4c(N)n3)CC2)cc1 | – | 694 | 15 | – | 521 | 2.5 | 0 | –
CCN(CCN1CCN(c2ccc(F)cc2F)CC1)c1cc2nc(-c3ccco3)nn2c(N)n1 | – | 312 | – | – | 50 | 0.9 | – | –
COCCOc1ccc(N2CCN(CCNc3cc4nc(-c5ccco5)nn4c(N)n3)CC2)cc1 | – | 145 | – | – | 103 | 9.5 | – | –
COc1ccc(CCCN(C)c2cc3nc(-c4ccco4)nn3c(N)n2)cc1 | – | 76 | – | – | – | 5.7 | – | –
COCCOc1ccc(N2CCN(CCSc3cc4nc(-c5ccco5)nn4c(N)n3)CC2)cc1 | 65 | 965 | 50 | 65 | 910 | 1.5 | 15 | –
CN(CCN1CCN(c2ccc(F)cc2F)CC1)c1cc2nc(-c3ccco3)nn2c(N)n1 | 75 | 1580 | 50 | 35 | 53 | 1 | 30 | –
CN(CCN1CCN(c2ccc(F)cc2F)CC1)c1cc2nc(-c3cnco3)nn2c(N)n1 | – | 7000 | – | – | – | 0.3 | – | –
Nc1nc2c(cnn2CCN2CCN(c3ccc(F)cc3F)CC2)c2nc(-c3ccco3)nn12 | – | – | 75 | – | – | – | 80 | Activity (Rattus norvegicus [6]): 75%
COCCN(CCc1ccc(F)cc1)c1cc2nc(-c3ccco3)nn2c(N)n1 | – | 566 | – | – | – | 1 | – | –
COc1ccc(CN(C)c2cc3nc(-c4ccco4)nn3c(N)n2)cc1 | – | 40 | – | – | – | 46 | – | –
COCCOc1ccc(N2CCN(CCN(CCOC)c3cc4nc(-c5ccco5)nn4c(N)n3)CC2)cc1 | 57 | 338 | 29 | 37 | 355 | 0.7 | 6 | –
CN(CCc1ccc(F)cc1)c1cc2nc(-c3ccco3)nn2c(N)n1 | – | 248 | – | – | – | 2 | – | –

SMILES | inhibition in vivo at 3 mg/kg (Rattus norvegicus [1]) [%] | Ratio (Homo sapiens) | inhibition in vivo at 1 mg/kg (Rattus norvegicus [2]) [%] | inhibition in vivo at 3 mg/kg (Rattus norvegicus [3]) [%] | AUC [4] [ng·h/mL] | Ki (Adenosine receptor A2a) [nM] | inhibition in vivo at 1 mg/kg (Rattus norvegicus [5]) [%] | other results
COc1ccc(CCN(C)c2cc3nc(-c4ccco4)nn3c(N)n2)cc1 | – | 473 | – | – | – | 1.8 | – | –
COCCOc1ccc(N2CCN(CCOc3cc4nc(-c5ccco5)nn4c(N)n3)CC2)cc1 | – | 405 | 25 | – | 943 | 2.8 | 25 | –
COc1ccc(CCOc2cc3nc(-c4ccco4)nn3c(N)n2)cc1 | – | 58 | – | – | – | 2.8 | – | –
COCCOc1ccc(N2CCN(CCOc3cc4nc(-c5ccc(Cl)o5)nn4c(N)n3)CC2)cc1 | – | 40 | – | – | 6 | 40 | – | –
COCCOc1ccc(N2CCN(CCn3ncc4c3nc(N)n3nc(-c5ccco5)nc43)CC2)cc1 [PRELADENANT] | – | – | 77 | – | – | – | 70 | inhibition in vivo at 0.1 mg/kg (Rattus norvegicus [7]): 25%; inhibition in vivo at 0.3 mg/kg (Rattus norvegicus [8]): 60%; inhibition in vivo at 0.1 mg/kg (Rattus norvegicus [9]): 60%; inhibition in vivo at 0.3 mg/kg (Rattus norvegicus [10]): 60%
Nc1nc(SCCN2CCN(c3ccc(F)cc3F)CC2)cc2nc(-c3ccco3)nn12 | 50 | 365 | 50 | 45 | 229 | 1.4 | 5 | –
COCCOc1ccc(N2CCN(CCN(CC3CC3)c3cc4nc(-c5ccco5)nn4c(N)n3)CC2)cc1 | 65 | 234 | 7 | 77 | 245 | 0.8 | 32 | –
CN(CCN1CCN(c2ccc(F)cc2F)CC1)c1cc2nc(-c3cccc(C#N)c3)nn2c(N)n1 | 35 | 620 | – | 14 | 1300 | 1.8 | – | –
Nc1nc(N(CCN2CCN(c3ccc(F)cc3F)CC2)CC2CC2)cc2nc(-c3ccco3)nn12 | 65 | 831 | 40 | 41 | 17 | 0.3 | 34 | –
Nc1nc(NCCN2CCN(c3ccc(F)cc3F)CC2)cc2nc(-c3ccco3)nn12 | – | 262 | – | – | – | 1.5 | – | –
COc1ccc(CCCc2cc3nc(-c4ccco4)nn3c(N)n2)cc1 | – | 31 | – | – | – | 11.5 | – | –
COc1ccc(CCNc2cc3nc(-c4ccco4)nn3c(N)n2)cc1 | – | 20 | – | – | – | 5.8 | – | –
Cc1nccnc1-c1nc2cc(N(C)CCN3CCN(c4ccc(F)cc4F)CC3)nc(N)n2n1 | – | 7370 | – | – | – | 0.3 | – | –
COCCN(CCN1CCN(c2ccc(F)cc2F)CC1)c1cc2nc(-c3ccco3)nn2c(N)n1 | 56 | 1060 | – | 57 | – | 0.5 | – | –
CCN(CCN1CCN(c2ccc(OCCOC)cc2)CC1)c1cc2nc(-c3ccco3)nn2c(N)n1 | – | 102 | – | – | 230 | 1.5 | – | –
COc1ccc(CCSc2cc3nc(-c4ccco4)nn3c(N)n2)cc1 | – | 58 | – | – | – | 1.6 | – | –
